Laboratory results reported in patent US7169604B1, “Method for PR-39 peptide mediated selective inhibition of IκBα degradation” (Beth Israel Deaconess Medical Center, priority 1998, dated 2007).
Peptide text beside a SMILES is read from it. * marks the point of attachment. Cbz = O=C(OCc1ccccc1)*

Key:
Assay type in all cases: cell-based, human
IκBα [1] = assay: IκBα protein levels in ECV304 cells by Western blotting; conditions: ECV304 cells, 2 hr, 10 μM
Procedure: For IκBα expression studies, normally proliferating wild type ECV304 cells (ECV) or ECV-PR-39 and ECV-E4 cells were lysed in the loading buffer, subjected to electrophoresis on 10% SDS-PAGE gel and transferred to a PVDF membrane. IκBα expression was then determined by Western blotting with anti-IκBα antibody (Santa Cruz, Inc.). ECV304 cells treated for 2 hr with 10 μM of lactacystin (LC) were used as control.
Western blotting of ECV cell lysate was carried out following 2 hr exposure to buffer (0) or 100 or 50 nM of PR-39. […] Clearly, exposure of wild type ECV304 cells to the synthetic PR-39 peptide led to a dose-dependent increase in IκBα levels.

IκBα [2] = assay: TNF-α induced degradation of IκBα in U937 cells; conditions: 45 min pretreatment with 10 μM, TNF-α 1 ng/ml, 10 min
Procedure: Tumor necrosis factor (TNF)-α is known to induce rapid degradation of IκBα by the Ub-proteasome pathway.
As shown by FIG. 1E, PR-39 prevents TNF-a induced degradation of IκBα. U937 cells were cultured in 10% FBs-RPMI medium in the absence (−) or presence of TNF-a (1 ng/ml). 10 min following TNF-α addition, the cells were washed and IκBα protein levels assessed by Western blotting.
Note that a […] 45 min of pretreatment with 100 nM of PR-39 or 10 μM of MG132 or lactacystin (LC) prior to addition of blocked TNF-α, blocked cytokine-induced degradation of IκBα expression.

IκBα [3] = assay: Reversibility of inhibition of IκBα degradation after washout in U937 cells; conditions: 10 μM for 45 min, washed, 45 min later TNF-α 1 ng/ml, 10 min
Procedure: In parallel cells were exposed to MG132, a rapidly reversible competitive inhibitor of the proteasome or with lactacystin which covalently and irreversibly modifies the active site threonine residues. The results are shown by FIG. 1F.
U937 cells were pretreated with 100 nM of PR-39, 10 μM of either MG132 or lactacystin (LC) or buffer (Control) for 45 min. These cells were then extensively washed with fresh medium. 45 min later TNF-α (1 ng/ml) was added to medium, and the extent of IκBα degradation was determined 10 min later by Western blotting.

NFκB = assay: NFκB-dependent luciferase reporter (pNFκB-Luc) in ECV304 cells; conditions: 45 min pretreatment with 10 μM, TNF-α 1 ng/ml
Procedure: The results are presented by FIG. 2A.
The effect of PR-39-mediated inhibition of IκBα degradation on NFκB-dependent transcription was tested in ECV304 cells transiently transfected with pNFκB-Luc reporter vector.

U937 cells = assay: Proteasome-dependent degradation of total cellular proteins (35S Met pulse-chase); conditions: Homo sapiens, U-937, 1 hr chase, chloroquin 45 μM, after 16 hr metabolic labeling, read-out: inhibition of total cell protein degradation
Procedure: Therefore the extent of degradation of long-lived cell proteins before or following exposure was compared to either PR-39 or MG132. The result is given by FIG. 3A.
Exponentially proliferating U937 cells were grown in 10% FBS-RPMI 1640 methionine-free medium supplemented with 200 μCi ^35S Met for 16 hr. Cells were then washed with complete RPMI 1640 medium 3 times and cultured in 10% FBS-RPMI (chase) in the presence of 10 μM of either PR-39 or MG132 or an equal volume of PBS. Chloroquin (45 μM) was added to all cultures to prevent the lysosomal protein degradation. 1 hr later the cells were lysed, and TCA soluble ^35S counts were measured in a liquid scintillation counter (LKB). All experiments were carried out in triplicate and repeated three times. The data are shown as mean±standard deviation.

HSP70 = HSP70 expression by Western blotting

Row | SMILES | IκBα levels (IκBα [1]) | TNF-α caused decline of the level of IκBα (IκBα [2]) | extent of IκBα degradation after washout (IκBα [3]) | TNF-α induced increase in luciferase activity (NFκB) | inhibition at 10 µM (U937 cells) | HSP70 expression (HSP70; U937 cells, 1 μM, 3 hr exposure) | HSP70 levels (HSP70; cultured ECV304 cells, 10 μM)
1 | CC(=O)N[C@@H](CSC(=O)[C@]1([C@@H](O)C(C)C)NC(=O)[C@H](C)[C@@H]1O)C(=O)O [lactacystin] | increased IκBα levels | markedly reduced | irreversibly blocked proteasome-mediated degradation of IκBα | completely blocked | – | – | –
2 | CC(C)C[C@@H](C=O)NC(=O)[C@H](CC(C)C)NC(=O)[C@H](CC(C)C)NC(=O)OCc1ccccc1 [MG132, reference compound] (Cbz-Leu-Leu-Leu-aldehyde) | – | markedly reduced | complete disappearance of IκBα protein | completely blocked | ~50% | appearance of HSP70 expression | striking increase in HSP70 levels
